{"source": "patent US9248584B2", "about": "“High-temperature spray drying process and apparatus” (Bend Research, Inc., priority 2010, dated 2016)", "key": {"[1]": {"experiment": "Room temperature solubility in methanol", "type": "physicochemical", "settings": "room temperature (20° C. to 30° C.)"}, "Log P value": {"experiment": "Log P value", "type": "physicochemical"}}}
{"smiles": "CCC(=O)O[C@]1(C(=O)SCF)[C@H](C)C[C@H]2[C@@H]3C[C@H](F)C4=CC(=O)C=C[C@]4(C)[C@@]3(F)[C@@H](O)C[C@@]21C", "note": "[Active Agent 1, S-(fluoromethyl) 6α,9-difluoro-11β,17-dihydroxy-16α-methyl-3-oxoandrosta-1,4-diene-17β-carbothioate, 17-propionate]", "values": [{"measurement": "solubility in methanol", "setting": "[1]", "result": 0.3, "unit": "wt %"}, {"measurement": "logP", "setting": "Log P value", "result": 3.7}]}
